A short description of data set [1]: GSH ethyl ester conjugation / parent remaining in human liver microsomes. The data set is classed as in vitro ADME. Particulars: for Percentage (%) Parent Remaining in HLM: reacted with GSH.
The test system of data set [2] is OE33 cell line (esophageal adenocarcinoma). In words: Colony assay, OE33. The data set is classed as cell-based, human. Particulars: OE33, repeat dose every 48 hours for 10 days. As to the method:
Cells were plated into a 6 well plate at a density of 2000 cells/cm^2. Inhibitor treatment commenced 24 hours post seeding, and the media containing inhibitor was changed every 48 hours thereafter. […]

For data set [3] the test system is unchanged. As to the kind of experiment: Tumor sphere viability, MTT assay, OE33. The data set is classed as cell-based, human. Particulars: OE33, 72 hours of treatment. As to the method: FIG. 4A depicts a graph showing the ability of NADi-351 to inhibit the tumor sphere viability of the OE33 cell line (esophageal adenocarcinoma) after 72 hours of treatment using the Methylthiazolyldiphenyl-tetrazolium bromide (“MTT”) assay.
The compounds and salts disclosed herein can inhibit the viability of tumor spheres and decrease Notch target gene expression.
OE33 cells, human esophageal adenocarcinoma cell lines, were obtained from the European Collection of Cell Culture. SUM-149 and SUM-159, breast cancer cell lines, were obtained from Dr. Joyce Slingerland at the University of Miami School of Medicine. The following cell lines were obtained directly from the ATCC: 786-0, a human renal cell adenocarcinoma cell line; HT-1080, a human fibrosarcoma cell line; MCF-7, a mammary gland adenocarcinoma; T47D, a human mammary ductal carcinoma cell line; and H-23 a non-small cell lung adenocarcinoma cell line. All cell lines were propagated in growth media as specified.
For orientation: Formazan colour is commonly taken as a measure of viable cells.

Another data set concerns intestinal crypts. In words: Histological analysis of mouse intestine tissue (H&E and PAS staining). The data set is classed as in vivo, BALB/c mice. Particulars: 5 days; DBZ at efficacious dose, NADi-351 at 4x the efficacious dose. On the procedure: The compounds and salts disclosed herein no not induce goblet cell metaplasia in intestinal crypts. Intestinal crypts were exposed to vehicle (DMSO), an efficacious dose of dibenzazepine (“DBZ”), a γ-secretase inhibitor, and 4× the efficacious dose of NADi-351 and stained with a hemotoxylin and eosin (“H&E”) stain and a periodic acid-Schiff (“PAS”) stain.
Six-week old BALB/c mice (Jackson Laboratories) were injected intraperitoneally with NADi-351, daily for 5 days. Small intestine samples were harvested on day 5. Formalin-fixed and paraffin-embedded tissues were sectioned at 3 μm thickness. Histochemical identification of intestinal cell types was performed with Periodic Acid-Schiff (PAS) staining kit (ab150680, Abcam), according to manufacturer's instructions.

≈ marks a conversion by molar mass, not a printed value.

Results on one compound are retold here after patent publication US12275725B2, “Inhibitors of the notch transcriptional activation complex and methods for use of the same” (University of Miami, priority 2019, dated 2025).

The term solubility denotes how much of the substance goes into solution per volume. A low value points to little dissolved substance. `COc1cc(/C(C)=C2\SC(=S)N(CC(=O)N(C)C)C2=O)cc(F)c1OCc1nnc[nH]1` [NADi-351, (Z)-2-(5-(1-(4-((1H-1,2,4-triazol-3-yl)methoxy)-3-fluoro-5-methoxyphenyl)ethylidene)-4-oxo-2-thioxothiazolidin-3-yl)-N,N-dimethylacetamide]: the “Percentage (%) Parent Remaining in HLM” value in data set [1] (incubation time 0 min) is given as 100%; in data set [1] (incubation time 60 min), 86%. Also, in data set [1] (within 60 minutes of incubation), the “GSH ethyl ester conjugation in HLM” value was “increased stability toward GSH ethyl ester conjugation”. Also, the solubility in “physchem” (pH 1.2, simulated gastric fluid) is 158 ± 7.7 µM (≈ 73.3 µg/mL); in the data set “physchem” (pH 6.5, fassif) it was 150 ± 4.1 µM (≈ 69.9 µg/mL); in the data set “physchem” (pH 7.4, aqueous buffer), 155 ± 9.6 µM (≈ 72 µg/mL). Moreover, the colony formation result in data set [2] is listed as “decreased colony formation”. The “decrease of tumor sphere viability” value in data set [3] is “about 75%”. Besides, the “goblet cell metaplasia / crypt integrity (H&E and PAS staining)” value with intestinal crypts was “no goblet cell metaplasia and intact crypts”.
